Assay results taken from patent US20160120864A1, “Novel Pyrrole Derivatives” (priority 2013, published 2016).
pIC50: −log10 of the molar value. Counter-ions that a name gives are not always drawn.

What was measured:
pneumolysin = pneumolysin (Streptococcus pneumoniae serotype 2, UniProt Q04IN8); test: Inhibition of the haemolytic activity of pneumolysin (sheep erythrocytes); assay type: cell-based
Protocol: A. Primary In Vitro Assay: Inhibition of the Haemolytic Activity of Pneumolysin
The basis of this assay is that when pneumolysin is added to red blood cells, it induces their lysis and leads to the release of haemoglobin. In the presence of an inhibitory compound, pneumolysin-induced lysis is abolished, the red blood cells pellet at the bottom of the microtitre plate well and the supernatant is clear. However, if the compound is not inhibitory, the red blood cells are lysed and haemoglobin is released into the supernatant.
Test compound solutions (typically at 5 mM in DMSO) were diluted 1:1 in 100% DMSO. The compounds were then two-fold serially diluted in 100% DMSO across 11 wells of 96-well round-bottomed microtitre plate. PBS was then added to all the wells to achieve a 1:10 dilution of the compound in PBS. Pneumolysin was then added at a concentration equal to its LD100. Plates were then incubated at 37° C. for 30-40 min. After the incubation period, an equal volume of 4% (v/v) sheep erythrocyte suspension was added to each well and the plates incubated again at 37° C., for at least 30 min. […] Following the incubation with the erythrocytes, the Absorbance at 595 nm of each well was measured and the data used to determine the IC50 for each test compound. The IC50 values were determined using non-linear regression curve fitting. […]

physchem [1] = assay type: physicochemical; settings: for solubility: aqueous buffer, thermodynamic from solid, PBS pH 7.2; for Solubility in aqueous formulations compatible with intravenous dosing (in words): aqueous formulations at the desired concentrations
Protocol: PBS solutions for solubility and stability studies were prepared by dissolving 1 Oxoid™ tablet (obtained from Thermo Scientific) in deionised water (100 mL).
Solubility studies were performed by charging a vial with 5-10 mg of compound followed by the addition of PBS solution to achieve a concentration of 100 mg/ml. If solubility was not observed, the solution was diluted to concentrations of 50 mg/ml, 25 mg/ml and 4 mg/ml consecutively until complete solubility was observed.

physchem [2] = assay type: physicochemical; settings: buffer; PBS, 37.5° C.; read-out: Chemical stability in aqueous formulation (t½) (converted)
Protocol: (§1) Stability studies were carried out by dissolving 1-2 mg of compound in DMSO (1 mL) followed by addition of 0.4 mL of the resulting solution to stirred PBS solution (9.6 mL) at 37.5° C. A sample (ca. 0.5 mL) was immediately taken for HPLC analysis. Further samples were then taken for analysis at various timepoints thereafter. Half-lives were determined from the decrease in concentration of compound with respect to time.
as §1, with “performed” for “carried out”, “ml)” for “mL)”, “ml” for “mL”, “PBS” for “PBS solution”, “(-j” for “(ca.”, “time-points” for “timepoints”

[3] = assay type: in vitro ADME; settings: mouse plasma, 37° C., starting 10 μM
Protocol: The samples were then analysed by LC-MS/MS to obtain the amount of active compound appearing and prodrug derivative remaining over time.
The prodrug derivative of the invention was assessed in mouse plasma stability assay at a concentration of 10 μM. Test compounds were diluted in DMSO to a final stock concentration of 10 mM. For the purpose of the assay, the stocks prepared were further diluted in DMSO to a concentration of 400 μM and 5 μL were added to 195 μL of mouse plasma (pH 7.4) and then incubated at 37° C. The final concentration of DMSO in the plate was 2.5% (v/v). Reactions were terminated at 0, 15, 30, 60 and 120 min after incubation by adding 400 μL of acetonitrile containing 0.55 μM metoprolol and 1% (v/v) formic acid. The plate was then centrifuged at 3000 rpm, for 45 min, at 4° C. 80 μL of supernatant were transferred into a conical bottom 96 well glass coated plate. 40 μL of water were added prior to analysis for prodrug derivative and active species by LC-MS/MS. This assay was performed by a contract research organisation, Cyprotex Discovery Limited, UK, at the request of the inventors at Leicester.
The quantification of the prodrug compound remaining and the parent active compound appearing was performed as follows:
(1) The parent active compound was quantified using a 6 point calibration curve prepared in deactivated mouse plasma. (2) The percentage of prodrug compound remaining at each time point relative to 0 min sample was calculated from LC-MS/MS peak area ratios (compound peak area/internal standard peak area). This percentage was then used to determine the concentration of the prodrug compound at each time point in reference to the starting concentration (10 μM) at time 0 min.

pneumolysin, sequence (Q04IN8 whole entry): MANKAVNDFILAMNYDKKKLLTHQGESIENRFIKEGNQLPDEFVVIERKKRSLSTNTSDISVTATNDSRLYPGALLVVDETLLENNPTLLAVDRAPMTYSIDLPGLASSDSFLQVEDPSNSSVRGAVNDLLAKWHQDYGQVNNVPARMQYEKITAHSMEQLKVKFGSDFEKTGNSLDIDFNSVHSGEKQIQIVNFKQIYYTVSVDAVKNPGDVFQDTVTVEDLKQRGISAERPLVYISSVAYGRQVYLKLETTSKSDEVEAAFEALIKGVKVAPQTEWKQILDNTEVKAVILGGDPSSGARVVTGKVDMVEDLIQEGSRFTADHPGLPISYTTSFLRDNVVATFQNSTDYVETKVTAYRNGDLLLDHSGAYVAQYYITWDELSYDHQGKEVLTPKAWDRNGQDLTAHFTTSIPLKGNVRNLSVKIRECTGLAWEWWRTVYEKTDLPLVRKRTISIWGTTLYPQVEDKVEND

| SMILES | pIC50 (pneumolysin) | solubility (physchem [1]) [mg/mL] | Solubility in aqueous formulations compatible with intravenous dosing (in words) (physchem [1]) | half-life (physchem [2]) [h] | Prodrug (UL7-002) concentration remaining, t0 min. ([3]; 0 min) [µM] | Prodrug (UL7-002) concentration remaining, t15 min. ([3]; 15 min) [µM] | Prodrug (UL7-002) concentration remaining, t30 min. ([3]; 30 min) [µM] | Prodrug (UL7-002) concentration remaining, t60 min. ([3]; 60 min) [µM] | Prodrug (UL7-002) concentration remaining, t120 min. ([3]; 120 min) [µM] |
| --- | --- | --- | --- | --- | --- | --- | --- | --- | --- |
| COc1ccc(-n2c(C(=O)N3CCN(C)CC3)c(O)c(O)c2C(=O)N2CCN(C)CC2)cc1 [UL7-001, (3,4-Dihydroxy-1-(4-methoxyphenyl)-1H-pyrrole-2,5-diyl)bis((4-methylpiperazin-1-yl)methanone)] | 6.52 | ≥ 100 | readily soluble | < 0.5 |  |  |  |  |  |
| COc1ccc(-n2c(C(=O)N3CCN(C)CC3)c(OC(=O)C(C)C)c(OC(=O)C(C)C)c2C(=O)N2CCN(C)CC2)cc1 [UL7-002, 1-(4-Methoxyphenyl)-2,5-bis(4-methylpiperazine-1-carbonyl)-1H-pyrrole-3,4-diyl bis(2-methylpropanoate)dihydrochloride] | 5.17 | ≥ 100 | readily soluble | 47 | 10.00 | 0.00 | 0.01 | 0.00 | 0.00 |
